Assay results published in patent publication US20160058712A1, “3-HYDROXYPTEROSTILBENE AND THERAPEUTIC APPLICATIONS THEREOF” (priority 2014, published 2016).

Key:
Assay type in all cases: cell-based, human
[1] = system: COLO 205 cells; experiment: Autophagy (acidic vesicular organelles) by acridine orange staining; settings: 24 h
Procedure: Autophagy induction in COLO 205 cells treated with 3-HPT and pterostilbene was detected by Acridine Orange (AO) staining. After 24 h treatment, COLO 205 cells were washed with phosphate buffered saline (PBS), suspended in PBS and stained with 1 μg/mL AO of 20 min. Photographs were obtained with a fluorescence microscope (Axioscop, Carl Zeiss, Thomwood, N.Y.) equipped with a mercury 100 W lamp, 490 nm Bandpass blue excitation filters, a 500 nm dichroic mirror and a 515 nm long pass barrier filter. For quantification of AVOs by flow cytometry, cells were treated as described under EXAMPLE II and stained with AO for 15 min and were analyzed by FACScan laser flow cytometer and CellQuest software.

[2] = system: LC3 I/II in COLO 205 cells; experiment: Western blotting of LC3 I/II expression; settings: COLO 205, 50 μM, 24 hours, compared to pterostilbene
Procedure: (§1) Western blotting analysis was performed as follows. The total proteins of COLO 205 cells were extracted via addition of gold lysis buffer (50 mM TrisHCl, pH 7.4; 1 mM NaF; 150 mM NaCl; 1 mM EGTA; 1 mM phenylmethanesulfonyl fluoride; 1% NP40; and 10 μg/mL leupeptin) to the cell pellets on ice for 30 min, followed by centrifugation at 10,000×g for 30 min at 4° C. The total proteins were measured by BioRad Protein Assay (BioRad Laboratories, Munich, Germany). The samples (50 μg of protein) were mixed with 5× sample buffer containing 0.3 M TrisHCl (pH 6.8), 25% 2mercaptoethanol, 12% sodium dodecyl sulfate (SDS), 25 mM EDTA, 20% glycerol, and 0.1% bromophenol blue. The mixtures were boiled at 100° C. for 5 min and were subjected to 10% SDS polyacrylamide minigels at a constant current of 20 mA. Electrophoresis was then carried out on SDSpolyacrylaniide gels. […] The transferred proteins were visualized with an enhanced chemi-luminescence detection kit (ECL Amersham Pharmacia Biotech, Buckinghamshire, UK). The densities of the bands were quantified with a computer densitometer (AlphaImager™ 2200 System Alpha densitometer. Innotech Corporation, San Leandro, Calif.). […]
(§2) COLO 205 cells were treated with 50 μM pterostilbene or 3-hydroxypterostilbene for 24 hours. Cell lysates were prepared after 24 h treatment and the protein expression of LC3 were analyzed by Western blotting.

[3] = system: PI3K/Akt, MAPKs and mTOR signaling in COLO 205 cells; experiment: Western blotting of mTOR/p70S6K, PI3K/Akt and MAPKs signaling; settings: COLO 205, 50 μM, 24 hours
Procedure: as §1, §2

[4] = system: PC-3 cell lines; experiment: Microscopic morphological changes of PC-3 cells; settings: PC-3, 2.5-20 μM, 100× phase contrast
Procedure: The morphological changes evident in PC-3 cell lines treated with graded concentrations of 3-HPT (2.5 μM, 5 μM, 10 μM and 20 μM of 3-HPT) as viewed microscopically (100× under inverted stage microscope equipped with phase contrast) indicated cell cytotoxicity starting at a concentration of 5 μM 3-HPT (FIG. 2).

[5] = system: PC-3 cells; experiment: Mitochondrial membrane potential by DiOC6 flow cytometry in PC-3 cells; settings: PC-3, 10 and 20 μM, 48 hr
Procedure: As a measure of down-stream check points in the mammalian apoptotic pathways, the potential of 3-HPT to cause mitochondrial dysfunction and activation of the caspase pathways was further evaluated. PC-3 cells were cultured in serum-free RPMI containing 0, 2.5, 5, 10, or 20 μM of 3-HPT for 48 hr, respectively. Then, cells were stained with DiOC6 and analyzed by flow cytometry.

COc1cc(/C=C/c2ccc(O)c(O)c2)cc(OC)c1 [3-hydroxypterostilbene, 3,4-dihydroxy-3′,5′-dimethoxy-trans-stilbene]
appearance of AVO (fluorescence microscopy) ([1]; COLO 205, 50 μM): marked appearance of AVO than pterostilbene | red fluorescence of cells with AVOs (flow cytometry) ([1]; COLO 205, 25 and 50 μM): significantly increased after treatment with 3-HPT in a dose dependent manner | protein LC3 I/II expression [2]: Enhanced protein LC3 I/II expression | PI3K/Akt and MAPKs signalings, phosphorylation of mTOR [3]: significantly down regulated | concentration at which cell cytotoxicity starts (morphological changes) [4]: 5 μM | mitochondrial membrane potential [5]: significant reduction
